Test [1] relates to pain intensity associated with knee osteoarthritis. Kind of test: Study I: 6-week clinical trial of tapentadol and NSAID combination, Arthritis Pain Intensity VAS. The test is classed as in vivo, human. To be noted: primary endpoint; average of Weeks 1-6; knee osteoarthritis patients; FIG. 2.
Test [2] concerns Chronic non-cancer pain (CNCP). Kind of test: Study III: clinical trial of tapentadol and tramadol combination, VAS pain score. Type of test: in vivo, human. Conditions: mean ± SD, VAS 0-100 mm, N = 10. The method, then: The following general methods were used in all of the studies;
Randomization: Randomization was performed with computer-generated random numbers in blocks of 10. Randomization codes of the monotherapy or combination therapy treatments were placed in sequentially numbered, opaque, sealed envelopes in the biopsy center. When a patient was recruited and consented, the next numbered envelope was opened by the operator, who had no knowledge of the randomization code before the treatment
Scale and Measurement: Pain was assessed using a visual analogue scale (VAS) graded from 0-100 mm. Pain scoring was performed every visit Week 1, Week 2, Week 3, Week 4, Week 5 and Week 6. The patients were taught with a standard method by the physician how to use a VAS scoring from 0 to 100 mm to grade the intensity of pain experienced during the treatment. On that scale, the left endpoint, 0, was defined as no pain and the right endpoint 100, as the worst pain the patient could imagine. There were no further marks on the line. The intensity of pain was indicated by the distance in millimeters from the left end. Patients were asked to grade the pain intensity after the administration of drugs and the pain was assessed by the patient in their weekly pain score diary. The doctors who prescribed the medicines obtained all the VAS forms for that specific patient.
Statistical Analysis: Data are expressed as means±SD. Differences in VAS were analyzed with use of the unpaired Student t test and differences in pain score reductions between the two groups were analyzed with use of the Mann-Whitney U test for the median difference. Similar statistical tests were used for between group comparisons of other outcome variables as appropriate. A two tailed P value of less than. […] SAS software was used for the statistical analysis.
The Fixed dose combination of slow release tapentadol hydrochloride and tramadol hydrochloride was tested in a human clinical trial. In this study III, 40 patients were used in a clinical trial were suffering from Chronic non-cancer pain (CNCP), defined as pain for longer than 6 months, including neuropathic pain, osteoarthritis, rheumatoid arthritis, fibromyalgia, and back and musculoskeletal pain were included in the clinical trial. No effort was made to segregate the patients based on the type of pain nor did we evaluate the extent of pain relief on the basis of pain type. Those patients with migraines, dental pain, abdominal pains (from chronic pancreatitis, kidney stones, etc.) and ischemic pain from vascular disease were excluded because they are usually not classified as CNCP. Patients with history of addiction (alcohol or drugs) were excluded from the trials.

Where a name gives a salt, the structure may show the parent alone.

Consider `COc1ccc2cc([C@H](C)C(=O)O)ccc2c1` [Naproxen, (+)-(S)-2-(6-methoxy-naphthalen-2-yl) propanoic acid], for which, in test [1], the “LS Mean change from baseline over 6 weeks in the arthritis pain intensity VAS” value turned out to be 28%.
On to `CC[C@@H](c1cccc(O)c1)[C@@H](C)CN(C)C` [Tapentadol, 3-(3-Dimethylamino-1-ethyl-2-methyl-propyl)-phenol], for which the “VAS Pain Score” value in test [2] (time 0 hours) turned out to be 33.7 ± 18.2; in test [2] (time 3 hours) it was 24.8 ± 19.1; in test [2] (time 6 hours), 21.1 ± 22.9; in test [2] (time 9 hours) it was 14.2 ± 23.1; in test [2] (time 12 hours), 11.2 ± 20.9; in test [2] (time 15 hours) it was 11.0 ± 16.2. The “VAS Pain Score” value in test [2] (time 18 hours) is on record as 9.5 ± 17.8; in test [2] (time 21 hours) it was 10.4 ± 16.2; in test [2] (time 24 hours), 11.6 ± 16.2. In addition, the “LS Mean change from baseline over 6 weeks in the arthritis pain intensity VAS” value in test [1] is given as 38%.
As to `COc1cccc([C@]2(O)CCCC[C@H]2CN(C)C)c1` (racemic) [Tramadol, (±) cis-2-[(dimethylamino)methyl]-1-(3-methoxyphenyl)cyclo-hexanol hydrochloride], the “VAS Pain Score” value in test [2] (time 0 hours) is on record as 32.4 ± 21.2; in test [2] (time 3 hours), 23.1 ± 20.1; in test [2] (time 6 hours), 18.8 ± 20.6; in test [2] (time 9 hours), 14.9 ± 17.2; in test [2] (time 12 hours), 13.1 ± 21.2; in test [2] (time 15 hours) it was 13.9 ± 19.2. Besides, the “VAS Pain Score” value in test [2] (time 18 hours) amounted to 15.4 ± 21.3; in test [2] (time 21 hours), 14.5 ± 19.2; in test [2] (time 24 hours), 13.9 ± 19.2.
